Reference: patent US12590086B2, “3-((1H-pyrazol-4-yl)methyl)-6′-(phenyl)-2H-(1,2′-bipyridin)-2-one derivatives and related compounds as GPR139 antagonists for use in a method of treatment of e.g. depression” (TAKEDA PHARMACEUTICAL COMPANY LIMITED, priority 2020, dated 2026)

target: T1, human GPR139 (Homo sapiens, UniProt Q6DWJ6); assay: Inhibition rate of the amount of IP1 in GPR139-expressed CHO cells (inverse agonist assay, IP-ONE HTRF); assay type: cell-based; conditions: 30 μM compound; CHO-TREx cells expressing human GPR139; vehicle set to 0%, IP1 concentration 0 set to 100%; read-out: inhibition rate of the amount of IP1
T1 construct: expressed in transfected cells; host or cells: CHO-TREx (Life Technologies) cells, expression induced with doxycycline
T1 sequence (Q6DWJ6 1-353): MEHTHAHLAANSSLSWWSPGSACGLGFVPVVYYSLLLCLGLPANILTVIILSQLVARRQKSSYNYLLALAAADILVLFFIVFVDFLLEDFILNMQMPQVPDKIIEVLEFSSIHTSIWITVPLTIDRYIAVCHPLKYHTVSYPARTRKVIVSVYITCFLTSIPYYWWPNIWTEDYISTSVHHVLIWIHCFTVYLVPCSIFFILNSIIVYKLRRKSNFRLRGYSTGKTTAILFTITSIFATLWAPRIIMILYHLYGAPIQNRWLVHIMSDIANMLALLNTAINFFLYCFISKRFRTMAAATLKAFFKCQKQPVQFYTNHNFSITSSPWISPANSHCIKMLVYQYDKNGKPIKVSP
Protocol: Measurement of the inhibition rate of the amount of IP1 in 30 µM of the compound of Reference Example 1 in GPR139-expressed CHO cells
Changes in the amount of IP1 in GPR139-expressed CHO cells were measured in order to evaluate the activity of the compound via GPR139. GPR139 is a Gq-coupled receptor which varies intracellular calcium (Liu C et al., Mol Pharmacol. 2015 November; 88(5):911-25), so the amount of IP1, which is a stable metabolite of the second messenger IP3, changes due to activity regulation of GPR139. GPR139 is considered to be […] when expressed recombinantly in mammal cells, so a compound having a GPR139 receptor inverse agonist action is expected to reduce the amount of IP1 production.
The measurement of IP1 was made using an IP-ONE HTFR assay kit (cis-bio) and CHO-TREx (Life Technologies) cells stably transfected with GPR139. The CHO-TREx cells expressed human GPR139 with a tetracycline-inducing element. The cells were cultured in a medium containing F12K and 10% tetracycline-free FBS, and the expression of human GPR139 was induced over the course of 17 hours under conditions of 37° C. and 5% CO2 in the presence of 2 μg/mL of doxycycline (Clontech, 631311) in the growth medium on the day before assay. On the day of the test, after the cells were washed with 10 mL of PBS, the cells were detached with TrypLE Express (Life Technologies) and centrifuged at 1,000 rpm to form pellets, and a cell suspension was then prepared using a stimulation buffer (cis-bio, included in the IP-ONE HTRF assay kit).
The compound was diluted with the stimulation buffer, and 4 μL was added to a 384-well white assay plate (Greiner). The cell suspension was added so that there were 2000 cells per well, and the assay plate was left to stand for 40 minutes at 37° C. Equal amounts of iP1-d2 and Ab-Crp solutions (both available from cis-bio, included in the IP-ONE HTRF assay kit) prepared with a lysis buffer (cis-bio, included in the IP-ONE HTRF assay kit) were mixed, and 4 μL was added to the assay plate and left to stand for one hour at room temperature. After the fluorescence strengths of two wavelengths were measured by the HTRF settings of Envision (PerkinElmer), the value of Ratio=((Signal 665 nm)/(Signal 615 nm))×10000 was calculated.
Measurement of the Inhibition Rate of the Amount of IP1 in GPR139-Expressed CHO Cells (Inverse Agonist Assay)
The activities of the compounds of Examples 20 to 33 were expressed as relative values in Table 2 by measuring the inhibition rate of the amount of IP1 with the same method as in Test Example 1 and defining the inhibition rate of the amount of IP1 of the compound of Reference Example 1 in Test Example 1 as 100%.

Row | inhibition at 30 µM [%] | SMILES
1 | 84 | CCn1cc(Cn2ccn(-c3cc(N4CCO[C@H](C)C4)cc(C(F)(F)F)c3F)c2=O)cn1 [Reference Example 1, 1-[(1-Ethyl-1H-pyrazole-4-yl)methyl]-3-{2-fluoro-5-[(2R)-2-methylmorpholine-4-yl]-3-(trifluoromethyl)phenyl}-1,3-dihydro-2H-imidazole-2-one, reference compound]

same assay, conditions: relative value; inhibition rate of Reference Example 1 in Test Example 1 defined as 100%; GPR139-expressed CHO cells; read-out: IP1 Inhibition Rate at 30 μM

Row | inhibition at 30 µM [%] | SMILES
2 | 96 | CCn1cc(Cc2cccn(-c3cc(N4CCO[C@H](C)C4)cc(C(C)C)c3F)c2=O)cn1 [Example 27, 3-[(1-ethyl-1H-pyrazol-4-yl)methyl]-1-{2-fluoro-5-[(2R)-2-methylmorpholin-4-yl]-3-(propan-2-yl)phenyl}pyridin-2(1H)-one]
3 | 102 | CCn1cc(Cc2ccc(C)n(-c3cc(C4CC4)cc(N4CCO[C@H](C)C4)c3)c2=O)cn1 [Example 29, 1-{3-cyclopropyl-5-[(2R)-2-methylmorpholin-4-yl]phenyl}-3-[(1-ethyl-1H-pyrazol-4-yl)methyl]-6-methylpyridin-2(1H)-one]
4 | 97 | CCn1cc(Cc2cccn(-c3cc(N4CCC(F)(F)CC4)cc(C4CC4(F)F)c3F)c2=O)cn1 (stereo not drawn) [Example 30, 1-[3-(2,2-difluorocyclopropyl)-5-(4,4-difluoropiperidin-1-yl)-2-fluorophenyl]-3-[(1-ethyl-1H-pyrazol-4-yl)methyl]pyridin-2(1H)-one]
5 | 99 | CCn1cc(Cc2cc(C)cn(-c3cc(N4CCO[C@H](C)C4)cc(C4CC4)c3F)c2=O)cn1 [Example 32, 1-{3-cyclopropyl-2-fluoro-5-[(2R)-2-methylmorpholin-4-yl]phenyl}-3-[(1-ethyl-1H-pyrazol-4-yl)methyl]-5-methylpyridin-2(1H)-one]
6 | 100 | CCn1cc(Cc2cccn(-c3cc(OC4CCOCC4)cc(Br)c3F)c2=O)cn1 [Example 23, 1-{3-bromo-2-fluoro-5-[(oxan-4-yl)oxy]phenyl}-3-[(1-ethyl-1H-pyrazol-4-yl)methyl]pyridin-2(1H)-one]
7 | 98 | CCn1cc(Cc2cccn(-c3cc(N4CCO[C@H](C)C4)cc(OC(F)(F)F)c3F)c2=O)cn1 [Example 24, 3-[(1-ethyl-1H-pyrazol-4-yl)methyl]-1-{2-fluoro-5-[(2R)-2-methylmorpholin-4-yl]-3-(trifluoromethoxy)phenyl}pyridin-2(1H)-one]
8 | 100 | CCn1cc(Cc2cccn(-c3cc(N4CCO[C@H](C)C4)cc(CC(F)(F)F)c3F)c2=O)cn1 [Example 28, 3-[(1-ethyl-1H-pyrazol-4-yl)methyl]-1-{2-fluoro-5-[(2R)-2-methylmorpholin-4-yl]-3-(2,2,2-trifluoroethyl)phenyl}pyridin-2(1H)-one]
9 | 96 | CCn1cc(Cc2cccn(-c3cc(N4CCOC(C)(C)C4)cc(C4CC4)c3F)c2=O)cn1 [Example 21, 1-[3-cyclopropyl-5-(2,2-dimethylmorpholin-4-yl)-2-fluorophenyl]-3-[(1-ethyl-1H-pyrazol-4-yl)methyl]pyridin-2(1H)-one]
10 | 96 | CCn1cc(Cc2cccn(-c3cc(N4CCO[C@H](C)C4)cc(C4CC4)c3F)c2=O)cn1 [Example 20, 1-{3-cyclopropyl-2-fluoro-5-[(2R)-2-methylmorpholin-4-yl]phenyl}-3-[(1-ethyl-1H-pyrazol-4-yl)methyl]pyridin-2(1H)-one]
11 | 97 | CCn1cc(Cc2c(F)ccn(-c3cc(N4CCO[C@H](C)C4)cc(C4CC4)c3F)c2=O)cn1 [Example 26, 1-{3-cyclopropyl-2-fluoro-5-[(2R)-2-methylmorpholin-4-yl]phenyl}-3-[(1-ethyl-1H-pyrazol-4-yl)methyl]-4-fluoropyridin-2(1H)-one]
12 | 100 | CCn1cc(Cc2ccc(F)n(-c3cc(C4CC4)cc(N4CCO[C@H](C)C4)c3)c2=O)cn1 [Example 31, 1-{3-cyclopropyl-5-[(2R)-2-methylmorpholin-4-yl]phenyl}-3-[(1-ethyl-1H-pyrazol-4-yl)methyl]-6-fluoropyridin-2(1H)-one]
13 | 96 | CCn1cc(Cc2c(C)ccn(-c3cc(N4CCO[C@H](C)C4)cc(C4CC4)c3F)c2=O)cn1 [Example 33, 1-{3-cyclopropyl-2-fluoro-5-[(2R)-2-methylmorpholin-4-yl]phenyl}-3-[(1-ethyl-1H-pyrazol-4-yl)methyl]-4-methylpyridin-2(1H)-one]
14 | 95 | CC(C)n1cc(Cc2cccn(-c3cc(N4CCO[C@H](C)C4)cc(C4CC4)c3F)c2=O)cn1 [Example 25, 1-{3-cyclopropyl-2-fluoro-5-[(2R)-2-methylmorpholin-4-yl]phenyl}-3-{[1-(propan-2-yl)-1H-pyrazol-4-yl]methyl}pyridin-2(1H)-one]
15 | 98 | CCn1cc(Cc2cccn(-c3cc(OC4CCOCC4)cc(C4CC4)c3F)c2=O)cn1 [Example 22, 1-{3-cyclopropyl-2-fluoro-5-[(oxan-4-yl)oxy]phenyl}-3-[(1-ethyl-1H-pyrazol-4-yl)methyl]pyridin-2(1H)-one]
